Measured values as given in PubChem BioAssay (NCI).
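Each compound was tested at five concentrations against cells in 96-well plates for 48 hours. TGI marks complete inhibition of growth.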

What was measured:
Assay in all cases: DTP human tumour cell line panel, 48 h
[1] = system: HL-60(TB) leukemia
[2] = system: SR leukemia
[3] = system: HCT-116 colon
[4] = system: PC-3 prostate
[5] = system: SK-MEL-5 melanoma
[6] = system: UO-31 renal
[7] = system: OVCAR-5 ovarian
[8] = system: BT-549 breast
[9] = system: NCI-H23 lung
[10] = system: SNB-19 CNS
[11] = system: HCC-2998 colon
[12] = system: LOX IMVI melanoma
[13] = system: 786-0 renal
[14] = system: TK-10 renal
[15] = system: NCI-H522 lung
[16] = system: OVCAR-4 ovarian
[17] = system: MDA-MB-231 breast
[18] = system: OVCAR-3 ovarian
[19] = system: CCRF-CEM leukemia
[20] = system: K-562 leukemia
[21] = system: COLO 205 colon
[22] = system: SK-MEL-2 melanoma
[23] = system: KM12 colon
[24] = system: HCT-15 colon
[25] = system: SN12C renal
[26] = system: SK-OV-3 ovarian
[27] = system: HOP-62 NSCLC
[28] = system: SK-MEL-28 melanoma
[29] = system: U251 CNS
[30] = system: SW-620 colon
[31] = system: NCI-H460 lung
[32] = system: IGROV1 ovarian
[33] = system: RPMI-8226 leukemia
[34] = system: MOLT-4 leukemia
[35] = system: SF-268 CNS
[36] = system: HOP-92 NSCLC
[37] = system: SNB-75 CNS
[38] = system: A498 renal
[39] = system: MALME-3M melanoma
[40] = system: SF-295 CNS
[41] = system: NCI-H226 lung
[42] = system: M14 melanoma
[43] = system: HT29 colon
[44] = system: ACHN renal
[45] = system: SF-539 CNS
[46] = system: RXF 393 renal
[47] = system: UACC-257 melanoma
[48] = system: HS 578T breast
[49] = system: NCI/ADR-RES ovarian
[50] = system: A549 NSCLC
[51] = system: T-47D breast
[52] = system: MDA-N
[53] = system: DU-145 prostate
[54] = system: UACC-62 melanoma
[55] = system: CAKI-1 renal
[56] = system: EKVX NSCLC
[57] = system: OVCAR-8 ovarian
[58] = system: MCF7 breast
[59] = system: MDA-MB-435

## CS(=O)(=O)c1ccc(NNc2cc(=O)[nH]c(=O)[nH]2)cc1
[1]
  TGI: > 100 µM
[2]
  TGI: > 100 µM
[3]
  TGI: > 100 µM
[4]
  TGI: > 100 µM
[5]
  TGI: > 100 µM
[6]
  TGI: > 100 µM
[7]
  TGI: > 100 µM
[8]
  TGI: > 100 µM
[9]
  TGI: > 100 µM
[10]
  TGI: > 100 µM
[11]
  TGI: > 100 µM
[12]
  TGI: > 100 µM
[13]
  TGI: > 100 µM
[14]
  TGI: 9.34 µM
[15]
  TGI: 40.2 µM
[16]
  TGI: > 100 µM
[17]
  TGI: > 100 µM
[18]
  TGI: > 100 µM
[19]
  TGI: > 100 µM
[20]
  TGI: > 100 µM
[21]
  TGI: > 100 µM
[22]
  TGI: > 100 µM
[23]
  TGI: > 100 µM
[24]
  TGI: > 100 µM
[25]
  TGI: > 100 µM
[26]
  TGI: > 100 µM
[27]
  TGI: > 100 µM
[28]
  TGI: > 100 µM
[29]
  TGI: > 100 µM
[30]
  TGI: > 100 µM
[31]
  TGI: > 100 µM
[32]
  TGI: > 100 µM
[33]
  TGI: > 100 µM
[34]
  TGI: > 100 µM
[35]
  TGI: > 100 µM
[36]
  TGI: > 100 µM
[37]
  TGI: > 100 µM
[38]
  TGI: > 100 µM
[39]
  TGI: > 100 µM
[40]
  TGI: > 100 µM
[41]
  TGI: > 100 µM
[42]
  TGI: > 100 µM
[43]
  TGI: > 100 µM
[44]
  TGI: > 100 µM
[45]
  TGI: > 100 µM
[46]
  TGI: > 100 µM
[47]
  TGI: > 100 µM
[48]
  TGI: > 100 µM
[49]
  TGI: > 100 µM
[50]
  TGI: > 100 µM
[51]
  TGI: > 100 µM
[52]
  TGI: > 100 µM
[53]
  TGI: > 100 µM
[54]
  TGI: > 100 µM

## CC(=O)O[C@H]1C(=O)[C@@]2(C)[C@H]([C@H](OC(=O)C3CCCCC3)[C@]3(O)C[C@H](OC(=O)[C@H](O)[C@@H](NC(=O)OC(C)(C)C)c4ccccc4)C(C)=C1C3(C)C)[C@]1(OC(C)=O)CO[C@@H]1C[C@@H]2O
[1]
  TGI: 0.00365 µM
[2]
  TGI: > 12.5 µM
[3]
  TGI: > 4.97 µM
[55]
  TGI: > 12.5 µM
[4]
  TGI: > 12.5 µM
[5]
  TGI: > 3.99 µM
[6]
  TGI: > 12.5 µM
[7]
  TGI: 0.0701 µM
[8]
  TGI: 0.46 µM
[9]
  TGI: > 9.76 µM
[10]
  TGI: > 12.5 µM
[11]
  TGI: 0.248 µM
[12]
  TGI: > 11.9 µM
[13]
  TGI: > 7.61 µM
[14]
  TGI: > 10.1 µM
[15]
  TGI: 0.22 µM
[56]
  TGI: > 12.5 µM
[16]
  TGI: > 12.5 µM
[17]
  TGI: > 6.31 µM
[18]
  TGI: 0.019 µM
[19]
  TGI: > 8.82 µM
[20]
  TGI: > 12.5 µM
[21]
  TGI: 0.144 µM
[22]
  TGI: 5.15 µM
[23]
  TGI: > 12.5 µM
[24]
  TGI: > 12.5 µM
[25]
  TGI: > 11.5 µM
[26]
  TGI: > 12.5 µM
[28]
  TGI: > 9.82 µM
[29]
  TGI: > 12.5 µM
[30]
  TGI: > 12.5 µM
[31]
  TGI: > 5.2 µM
[32]
  TGI: > 12.5 µM
[33]
  TGI: 0.432 µM
[34]
  TGI: 0.337 µM
[35]
  TGI: > 12.5 µM
[36]
  TGI: 0.575 µM
[37]
  TGI: > 12.5 µM
[39]
  TGI: 5.07 µM
[40]
  TGI: 0.165 µM
[41]
  TGI: > 12.5 µM
[42]
  TGI: 0.117 µM
[43]
  TGI: > 6.33 µM
[44]
  TGI: > 12.5 µM
[45]
  TGI: 0.0571 µM
[46]
  TGI: 2.15 µM
[47]
  TGI: > 12.5 µM
[57]
  TGI: > 12.5 µM
[58]
  TGI: 0.0879 µM
[48]
  TGI: 0.741 µM
[49]
  TGI: > 5.94 µM
[50]
  TGI: > 12.5 µM
[51]
  TGI: > 12.5 µM
[52]
  TGI: 0.0173 µM
[54]
  TGI: > 2.47 µM

## O=C(O)c1ccccc1/C=C1\Cc2ccccc2C1=O
[1]
  TGI: > 100 µM
[2]
  TGI: > 100 µM
[3]
  TGI: > 100 µM
[55]
  TGI: > 100 µM
[4]
  TGI: > 100 µM
[5]
  TGI: > 100 µM
[6]
  TGI: > 100 µM
[7]
  TGI: > 100 µM
[8]
  TGI: > 100 µM
[9]
  TGI: > 100 µM
[10]
  TGI: > 100 µM
[11]
  TGI: > 100 µM
[12]
  TGI: > 100 µM
[13]
  TGI: > 100 µM
[14]
  TGI: > 100 µM
[15]
  TGI: > 100 µM
[56]
  TGI: > 100 µM
[16]
  TGI: > 100 µM
[18]
  TGI: > 100 µM
[19]
  TGI: > 100 µM
[20]
  TGI: > 100 µM
[21]
  TGI: > 100 µM
[22]
  TGI: > 100 µM
[23]
  TGI: > 100 µM
[24]
  TGI: > 100 µM
[25]
  TGI: > 100 µM
[27]
  TGI: > 100 µM
[28]
  TGI: > 100 µM
[29]
  TGI: > 100 µM
[30]
  TGI: > 100 µM
[31]
  TGI: > 100 µM
[32]
  TGI: > 100 µM
[33]
  TGI: > 100 µM
[34]
  TGI: > 100 µM
[35]
  TGI: > 100 µM
[59]
  TGI: > 100 µM
[37]
  TGI: > 100 µM
[38]
  TGI: > 100 µM
[39]
  TGI: > 100 µM
[40]
  TGI: > 100 µM
[41]
  TGI: > 100 µM
[42]
  TGI: > 100 µM
[43]
  TGI: > 100 µM
[44]
  TGI: > 100 µM
[45]
  TGI: > 100 µM
[46]
  TGI: > 100 µM
[47]
  TGI: > 100 µM
[57]
  TGI: > 100 µM
[58]
  TGI: > 100 µM
[48]
  TGI: > 100 µM
[49]
  TGI: > 100 µM
[50]
  TGI: > 100 µM
[51]
  TGI: > 100 µM
[52]
  TGI: > 100 µM
[53]
  TGI: > 100 µM
[54]
  TGI: > 100 µM
